Laboratory results published in PubChem BioAssay AID328 (DTP/NCI, 2004).
Where “and” joins values, the source holds several entries; their conditions need not be identical. Equal entries are not always repeated. Toxic doses and inconclusive results are not listed.

Test system: BDF1 mice, P388 leukemia ip, median survival T/C
Test: NCI In Vivo Anticancer Drug Screen. Data for tumor model P388 Leukemia (intraperitoneal) in B6D2F1 (BDF1) mice
Conditions: endpoint: median survival time, higher = longer survival
How it was run: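 Transplantable tumour in mice; compound vs vehicle dosing; survival scored; ratio of treated to control reported.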

[1] = dose: 25.0 mg/kg/injection, schedule: Q01DX009 (ip), vehicle: Klucel (hydroxypropylcellulose) (HPC)
[2] = dose: 50.0 mg/kg/injection, schedule: Q01DX009 (ip), vehicle: saline with Tween-80
[3] = dose: 100.0 mg/kg/injection, schedule: Q01DX009 (ip), vehicle: saline with Tween-80
[4] = dose: 100.0 mg/kg/injection, schedule: Q01DX009 (ip), vehicle: saline
[5] = dose: 200.0 mg/kg/injection, schedule: Q01DX009 (ip), vehicle: saline
[6] = dose: 50.0 mg/kg/injection, schedule: Q04DX003 (ip), vehicle: saline with Tween-80
[7] = dose: 6.25 mg/kg/injection, schedule: Q01DX009 (ip), vehicle: saline
[8] = dose: 100.0 mg/kg/injection, schedule: Q04DX003 (ip), vehicle: saline with Tween-80
[9] = dose: 200.0 mg/kg/injection, schedule: Q04DX003 (ip), vehicle: saline with Tween-80

CCC(=O)OCC1OC(n2cnc3c(=S)nc(N)[nH]c32)C(OC(=O)CC)C1OC(=O)CC (centres undefined) was tested, and the T/C (dose: 12.5 mg/kg/injection, schedule: Q04DX003 (ip), vehicle: Klucel (hydroxypropylcellulose) (HPC)) was 103 % of control, the T/C (dose: 16.0 mg/kg/injection, schedule: Q04DX003 (ip), vehicle: Klucel (hydroxypropylcellulose) (HPC)) was 118 % of control and the T/C [1] was 115 % of control. For the same compound, the T/C (dose: 25.0 mg/kg/injection, schedule: Q04DX003 (ip), vehicle: Klucel (hydroxypropylcellulose) (HPC)) was 173 % of control, the T/C (dose: 50.0 mg/kg/injection, schedule: Q01DX009 (ip), vehicle: Klucel (hydroxypropylcellulose) (HPC)) was 100 % of control and the T/C (dose: 100.0 mg/kg/injection, schedule: Q04DX003 (ip), vehicle: Klucel (hydroxypropylcellulose) (HPC)) was 122 % of control.
With COc1cc2c(c(OC)c1OC)-c1ccc(OC)c(=O)cc1[C@@H](NC(=O)C(F)(F)F)CC2 the T/C (dose: 0.09 mg/kg/injection, schedule: Q01DX009 (ip), vehicle: Klucel (hydroxypropylcellulose) (HPC)) was 155 % of control, the T/C (dose: 0.18 mg/kg/injection, schedule: Q01DX009 (ip), vehicle: Klucel (hydroxypropylcellulose) (HPC)) was 171 % of control and the T/C (dose: 0.39 mg/kg/injection, schedule: Q01DX009 (ip), vehicle: Klucel (hydroxypropylcellulose) (HPC)) was 245 % of control.
In the case of CN(N/C=N/S(=O)(=O)c1ccccc1)c1ccccc1, the T/C [2] is reported as 94 % of control and the T/C [3] is reported as 93 % of control.
With CN1CSC(=S)N(Cc2ccccc2)C1 the T/C [2] was 90 % of control and the T/C [3] was 90 % of control.
For O=[N+]([O-])c1cc([N+](=O)[O-])c(Br)cc1Cl, the T/C (dose: 5.0 mg/kg/injection, schedule: Q01DX009 (ip), vehicle: Klucel (hydroxypropylcellulose) (HPC)) was 101 % of control, the T/C (dose: 10.0 mg/kg/injection, schedule: Q01DX009 (ip), vehicle: Klucel (hydroxypropylcellulose) (HPC)) was 110 % of control and the T/C (dose: 20.0 mg/kg/injection, schedule: Q01DX009 (ip), vehicle: Klucel (hydroxypropylcellulose) (HPC)) was 112 % of control.
With CNC(C)c1ccc(C)cc1 (centres undefined) the T/C (dose: 6.25 mg/kg/injection, schedule: Q04DX003 (ip), vehicle: saline) was 100 % of control, the T/C (dose: 12.5 mg/kg/injection, schedule: Q04DX003 (ip), vehicle: saline) was 104 % of control and the T/C (dose: 25.0 mg/kg/injection, schedule: Q04DX003 (ip), vehicle: saline) was 100 % of control.
In the case of O=CC(/C=N\Nc1ccccc1)=N/Nc1ccccc1, the T/C (dose: 20.0 mg/kg/injection, schedule: Q01DX009 (ip), vehicle: saline with Tween-80) is reported as 100 % of control and the T/C (dose: 80.0 mg/kg/injection, schedule: Q01DX009 (ip), vehicle: saline with Tween-80) is reported as 89 % of control.
For c1ccc2c(c1)ccc1c[n+]3ccccc3cc12, the T/C (dose: 0.25 mg/kg/injection, schedule: Q01DX009 (ip), vehicle: saline) was 90 % of control, the T/C (dose: 0.5 mg/kg/injection, schedule: Q01DX009 (ip), vehicle: saline) was 90 % of control and the T/C (dose: 1.0 mg/kg/injection, schedule: Q01DX009 (ip), vehicle: saline) was 90 % of control. For the same compound, the T/C (dose: 2.0 mg/kg/injection, schedule: Q01DX009 (ip), vehicle: saline) was 90 % of control.
For CC(=O)Oc1ccc(N2C(=O)C=CC2=O)cc1, the T/C (dose: 1.56 mg/kg/injection, schedule: Q04DX003 (ip), vehicle: Klucel (hydroxypropylcellulose) (HPC)) was 100 % of control, the T/C (dose: 3.12 mg/kg/injection, schedule: Q01DX009 (ip), vehicle: Klucel (hydroxypropylcellulose) (HPC)) was 104 % of control and the T/C (dose: 3.12 mg/kg/injection, schedule: Q04DX003 (ip), vehicle: Klucel (hydroxypropylcellulose) (HPC)) was 100 % of control. For the same compound, the T/C (dose: 6.25 mg/kg/injection, schedule: Q01DX009 (ip), vehicle: Klucel (hydroxypropylcellulose) (HPC)) was 104 % of control, the T/C (dose: 6.25 mg/kg/injection, schedule: Q04DX003 (ip), vehicle: Klucel (hydroxypropylcellulose) (HPC)) was 100 % of control and the T/C (dose: 9.2 mg/kg/injection, schedule: Q04DX003 (ip), vehicle: Klucel (hydroxypropylcellulose) (HPC)) was 90 % of control. The T/C (dose: 12.5 mg/kg/injection, schedule: Q01DX009 (ip), vehicle: Klucel (hydroxypropylcellulose) (HPC)) was 109 % of control and the T/C (dose: 14.0 mg/kg/injection, schedule: Q04DX003 (ip), vehicle: Klucel (hydroxypropylcellulose) (HPC)) was 95 % of control.
In the case of CCOC1NC(C)(C)CO1 (centres undefined), the T/C (dose: 100.0 mg/kg/injection, schedule: Q04DX003 (ip), vehicle: saline) is reported as 100 % of control, the T/C (dose: 200.0 mg/kg/injection, schedule: Q04DX003 (ip), vehicle: saline) is reported as 91 % of control and the T/C (dose: 400.0 mg/kg/injection, schedule: Q04DX003 (ip), vehicle: saline) is reported as 95 % of control.
CC(C(N)C(=O)O)C(O)c1ccc(O)cn1 (centres undefined) was tested, and the T/C (dose: 45.0 mg/kg/injection, schedule: Q01DX009 (ip), vehicle: water) was 109 % of control, the T/C (dose: 90.0 mg/kg/injection, schedule: Q01DX009 (ip), vehicle: water) was 102 % of control and the T/C (dose: 180.0 mg/kg/injection, schedule: Q01DX009 (ip), vehicle: water) was 102 % of control.
For CC1(C(=O)N2CC2)OC1c1ccccc1 (centres undefined), the T/C (dose: 25.0 mg/kg/injection, schedule: Q04DX002 (ip), vehicle: saline with Tween-80) was 91 % of control, the T/C (dose: 50.0 mg/kg/injection, schedule: Q04DX002 (ip), vehicle: saline with Tween-80) was 98 % of control and the T/C (dose: 100.0 mg/kg/injection, schedule: Q04DX002 (ip), vehicle: saline with Tween-80) was 96 % of control and 100 % of control.
N#CC1=C(N)CCCC1 was tested, and the T/C (dose: 50.0 mg/kg/injection, schedule: Q01DX009 (ip), vehicle: saline) was 97 % of control, the T/C [4] was 99 % of control and the T/C [5] was 102 % of control.
In the case of CC1COC(Nc2cccc3c2CCCC3)=N1 (centres undefined), the T/C (dose: 12.5 mg/kg/injection, schedule: Q04DX003 (ip), vehicle: saline with Tween-80) is reported as 100 % of control, the T/C (dose: 25.0 mg/kg/injection, schedule: Q04DX003 (ip), vehicle: saline with Tween-80) is reported as 109 % of control and the T/C [6] is reported as 109 % of control.
CCCCCCCCCCCCNC(=O)c1ccc[n+](C)c1 was tested, and the T/C [7] was 118 % of control, the T/C (dose: 12.5 mg/kg/injection, schedule: Q01DX009 (ip), vehicle: saline) was 109 % of control and the T/C (dose: 25.0 mg/kg/injection, schedule: Q01DX009 (ip), vehicle: saline) was 113 % of control.
C=C(C)S(=O)(=O)c1ccc(C)cc1 was tested, and the T/C [8] was 108 % of control, the T/C [9] was 91 % of control and the T/C (dose: 400.0 mg/kg/injection, schedule: Q04DX003 (ip), vehicle: saline with Tween-80) was 88 % of control.
In the case of Clc1ccc(-n2nnc3cc(Cl)ccc32)c(Cl)c1, the T/C [3] is reported as 99 % of control.
O=C1C(NC(=O)C2CCCCC2)=C(N2CC2)C(=O)C(NC(=O)C2CCCCC2)=C1N1CC1 was tested, and the T/C [1] was 123 % of control, the T/C (dose: 50.0 mg/kg/injection, schedule: Q01DX010 (ip), vehicle: saline) was 118 % of control and the T/C (dose: 100.0 mg/kg/injection, schedule: Q01DX009 (ip), vehicle: Klucel (hydroxypropylcellulose) (HPC)) was 106 % of control. For the same compound, the T/C (dose: 200.0 mg/kg/injection, schedule: Q01DX010 (ip), vehicle: saline) was 150 % of control and 209 % of control and the T/C (dose: 400.0 mg/kg/injection, schedule: Q01DX010 (ip), vehicle: saline) was 86 % of control.
Cc1cc(/C=C/c2cc[n+](C)c3ccccc23)c(O)c2ncccc12 was tested, and the T/C (dose: 3.0 mg/kg/injection, schedule: Q01DX009 (ip), vehicle: saline) was 163 % of control, the T/C (dose: 6.0 mg/kg/injection, schedule: Q01DX009 (ip), vehicle: Klucel (hydroxypropylcellulose) (HPC)) was 155 % of control and the T/C (dose: 6.0 mg/kg/injection, schedule: Q01DX009 (ip), vehicle: saline) was 159 % of control. For the same compound, the T/C (dose: 12.0 mg/kg/injection, schedule: Q01DX009 (ip), vehicle: Klucel (hydroxypropylcellulose) (HPC)) was 165 % of control, the T/C (dose: 12.0 mg/kg/injection, schedule: Q01DX009 (ip), vehicle: saline) was 159 % of control and the T/C (dose: 24.0 mg/kg/injection, schedule: Q01DX009 (ip), vehicle: saline) was 168 % of control.
In the case of CCCCOB(CI)OCCCC, the T/C (dose: 1.56 mg/kg/injection, schedule: Q01DX009 (ip), vehicle: saline) is reported as 95 % of control, the T/C (dose: 3.13 mg/kg/injection, schedule: Q01DX009 (ip), vehicle: saline) is reported as 109 % of control and the T/C [7] is reported as 89 % of control and 109 % of control.
With O=c1oc(-c2ccccc2)nc2cc(Cl)ccc12 the T/C [6] was 100 % of control and 109 % of control, the T/C [8] was 100 % of control and 109 % of control and the T/C [9] was 104 % of control.
In the case of CCN(CCNc1ccc(C)c2sc3cc(Cl)ccc3c(=O)c12)CC(C)O (centres undefined), the T/C [4] is reported as 109 % of control and the T/C [5] is reported as 104 % of control.
Clc1nc(NCc2ccccc2)c2cn[nH]c2n1 was tested, and the T/C (dose: 25.0 mg/kg/injection, schedule: Q01DX009 (ip), vehicle: saline with Tween-80) was 91 % of control, the T/C [2] was 91 % of control and the T/C [3] was 91 % of control.
Cc1ccc(C(=O)C2CC2)cc1C was tested, and the T/C (dose: 33.0 mg/kg/injection, schedule: Q01DX009 (ip), vehicle: saline with Tween-80) was 96 % of control, the T/C [2] was 103 % of control and the T/C [6] was 104 % of control. The T/C (dose: 75.0 mg/kg/injection, schedule: Q01DX009 (ip), vehicle: saline with Tween-80) was 111 % of control, the T/C [8] was 112 % of control and the T/C (dose: 200.0 mg/kg/injection, schedule: Q01DX009 (ip), vehicle: saline with Tween-80) was 120 % of control. The T/C [9] was 112 % of control.
